Test results taken from article PMC7600679, “Benzoxazole-Based Metal Complexes to Reverse Multidrug Resistance in Bacteria” (Antibiotics, 2020).
Converted amounts (≈) assume the structure as drawn. Where two headings read alike, the source gives them in different places.

Assays:
S. aureus MRSA 272123 = assay: Resistance modulation (MIC reduction) assay with CIP and TET; assay type: cell-based, Staphylococcus aureus; conditions: antibiotic alone
Protocol: (§1) The resistance modulation effects of compounds with ciprofloxacin (CIP) and tetracycline (TET) antibiotics were evaluated by the MIC reduction method on the Gram-negative E. coli AG100, AG100 A, and the Gram-positive S. aureus ATCC and MRSA strains.
(§2) The chemosensitizing activity of benzoxazole-type ligands and their metal complexes was determined based on the MIC values of the antibiotics in the presence of sub-inhibitory concentrations of the compounds (¼ MIC) in both Gram-negative and Gram-positive strains. The MICs were determined in strains by the two-fold broth microdilution method in 96-well plates, using serial dilutions of TET and CIP. The first four rows contained two-fold dilutions of antibiotics, and combinations of the TET and CIP and tested compounds were transferred into the last four rows. The 10^−4 dilution of an overnight bacterial culture in 50 μL of MHB was then measured to each well, except for the medium control wells. The plates were kept at 37 °C for 18 h. MIC values of antibiotics and their combination with tested compounds were detected by visual inspection.

E. coli AG100 [1] = assay: as above; assay type: cell-based, Escherichia coli; conditions: antibiotic alone
Protocol: as §1, §2

E. coli AG100 A [2] = assay: Real-time ethidium bromide accumulation (efflux pump inhibition); assay type: cell-based, Escherichia coli; conditions: compounds at ¼ MIC, EB 1 μg/mL, minute 30
Protocol: (§3) Since multidrug resistance EPs are very important factors contributing to multidrug resistance (MDR) in both Gram-positive and Gram-negative bacteria, the inhibition of these pumps could reverse the resistant phenotype and restore the activity of antibiotics. The effect of compounds on ethidium bromide (EB) accumulation was determined by the automated EB method. This assay was used to determine how much of the fluorescent dye and pump substrate EB was accumulated by the bacterial cells in the presence of the tested compounds. The real-time accumulation of EB was monitored for 30 min in both S. aureus and E. coli strains.
(§4) The accumulation of the efflux pump substrate EB was monitored by the automated EB method using a LightCycler real-time thermocycler (LightCycler 1.5, Roche, Indianapolis, IN, USA). An aliquot of an overnight culture of the S. aureus strains in TSB medium was inoculated into fresh TSB medium, and it was incubated until it reached an optical density (OD) of 0.6 at 600 nm. In the case of E. coli strains, the medium applied in the assay was LB broth; the preparation of the inoculum was similar to the one of S. aureus. The cells were washed with phosphate buffered saline (PBS; pH 7.4) and centrifuged at 13,000 × g for 3 min, the pellets were re-suspended in PBS (pH 7.4), and the OD was calibrated to 0.6 at 600 nm. The compounds were measured at ¼ MIC concentration (in double-concentrated form) to the EB solution in PBS. The final concentration of EB was determined according to the MIC and the fluorescent signal produced by this amount of EB. In the case of all strains, the concentration of EB was 1 μg/mL. Then, 10 μL of the EB solution plus the compound were pipetted into standard glass capillary tubes of 20 µL maximum volume (Roche, Indianapolis, USA), and 10 μL of bacterial culture (OD of 0.6 at 600 nm) were transferred to the capillaries. The capillaries containing the samples were placed into the carousel, and the fluorescence was monitored at the FL-2 channel in every minute on a real-time basis.
(§5) Based on the data obtained, the relative fluorescence index (RFI) of the last time point (minute 30) was determined as follows:RFI = (RFtreated − RFuntreated)/RFuntreated(1) where RFtreated is the relative fluorescence (RF) at the last time point of the EB retention curve in the presence of an inhibitor, and RFuntreated is the relative fluorescence at the last time point of the EB retention curve of the untreated control having the solvent control (DMSO).

E. coli AG100 [3] = assay: Real-time ethidium bromide accumulation (efflux pump inhibition, AcrAB-TolC); assay type: cell-based, Escherichia coli; conditions: compounds at ¼ MIC, EB 1 μg/mL, minute 30
Protocol: as §3, §4, §5

S. aureus ATCC 25923 = assay: Real-time ethidium bromide accumulation (efflux pump inhibition); assay type: cell-based, Staphylococcus aureus; conditions: compounds at ¼ MIC, EB 1 μg/mL, minute 30
Protocol: as §3, §4, §5

[4] = test system: Chromobacterium violaceum 026; assay: Minimum inhibitory concentration (broth microdilution, CLSI); assay type: cell-based; conditions: Chromobacterium violaceum; C. violaceum 026
Protocol: (§6) The following bacterial strains were applied in the QS tests: C. violaceum 026 as sensor strain and E. cloacae 31298 isolated from clinical wound (used as N-acyl-homoserine lactone (AHL) producer); this strain induced pigment production by C. violaceum and is a model strain to study QS interactions.
(§7) The minimum inhibitory concentrations (MICs) of compounds were determined in 96-well plates based on the Clinical and Laboratory Standard Institute guidelines (CLSI guidelines). The compounds were diluted in 100 μL of MHB. Then, 10^−4 dilution of an overnight bacterial culture in 100 μL of medium were added to each well, with the exception of the medium control wells.

[5] = test system: Enterobacter cloacae 31298; assay: as above; assay type: cell-based; conditions: Enterobacter cloacae; E. cloacae 31298
Protocol: as §6, §7

E. coli AG100 A [6] = assay: as above; assay type: cell-based, Escherichia coli; conditions: Escherichia coli, AG100A, 18 h
Protocol: Wild-type E. coli K-12 AG100 strain (argE3 thi-1 rpsL xyl mtl Δ(gal-uvrB) supE44) expressing the AcrAB TolC EP at its basal level and its AcrAB-TolC deleted mutant E. coli K-12 AG100 A strain. The strains were donated by Prof. Dr. Hiroshi Nikaido (Department of Molecular and Cell Biology and Chemistry, University of California, Berkeley, CA, USA).
as §7

[7] = test system: MRC-5 human embryonal lung fibroblast cell line; assay: Cytotoxicity assay (MTT); assay type: cell-based; conditions: for Cytotoxic effect (class in words): 24 h; for IC50: Homo sapiens, MRC5, 24 h
Protocol: The MRC-5 human embryonic lung fibroblast cell line (ATCC CCL-171; provider: LGC Promochem, Teddington, UK) was used in the experiments. The cells were cultivated in Eagle’s Minimal Essential Medium (EMEM; Sigma–Aldrich, St. Louis, MO, USA), supplemented with 1% non-essential amino acid mixture, 10% heat-inactivated fetal bovine serum, 2 mM L-glutamine, 1 mM Na-pyruvate, nystatin, and a penicillin–streptomycin mixture in concentrations of 100 U/L and 10 mg/L, respectively. The supplementary components were obtained from Sigma–Aldrich, St. Louis, MO, USA. The cell culture was kept in a humidified atmosphere (5% CO2, 95% air) at 37 °C.
The activity of increasing concentrations of the compounds on cell growth was determined in 96-well flat-bottomed microtiter plates by two-fold serial dilutions of the benzoxazole derivatives. The adherent human embryonic lung fibroblast cells (10^4/well) was seeded in EMEM medium in 96-well microtiter plates for 4 h prior to the assay. The serial dilutions of the compounds were made in a separate plate, and then pipetted to the plates containing the MRC-5 cell line. Culture plates were incubated at 37 °C for 24 h; at the end of the incubation period, 20 μL of MTT (3-(4,5-dimethylthiazol-2-yl)-2,5-diphenyltetrazolium bromide) solution (from a 5 mg/mL stock solution) was measured to each well. After the incubation at 37 °C for 4 h, 100 μL of sodium dodecyl sulfate (SDS) solution (10% SDS in 0.01 M HCl) was added to each well to dissolve the formazan crystals and the samples were further incubated at 37 °C overnight. Cell growth was calculated by measuring the OD at 540 nm (ref. 630 nm) with a Multiscan EX ELISA reader. The cytotoxicity was expressed as IC50 values, defined as the inhibitory dose that reduces the growth of the cells exposed to the tested compounds by 50%.

[8] = test system: Staphylococcus aureus ATCC 25923; assay: Minimum inhibitory concentration (broth microdilution, CLSI); assay type: cell-based; conditions: Staphylococcus aureus, ATCC25923; S. aureus ATCC 25923; 18 h, visual inspection
Protocol: (§8) The compounds were further investigated against two Gram-positive strains, S. aureus ATCC 25923 (MSSA), used as the methicillin susceptible reference strain, and the methicillin- and ofloxacin-resistant S. aureus 272123 clinical isolate (MRSA), which was given by Prof. Dr. Leonard Amaral (Institute of Hygiene and Tropical Medicine, Lisbon, Portugal).
as §7

S. aureus 272123 (MRSA) [9] = assay: as above; assay type: cell-based, Staphylococcus aureus; conditions: 18 h, visual inspection
Protocol: as §8, §7

E. coli AG100 [10] = assay: as above; assay type: cell-based, Escherichia coli; conditions: Escherichia coli
Protocol: The strains were donated by Prof. Dr. Hiroshi Nikaido (Department of Molecular and Cell Biology and Chemistry, University of California, Berkeley, CA, USA).
as §7

S. aureus 272123 (MRSA) [11] = assay: Real-time ethidium bromide accumulation (efflux pump inhibition); assay type: cell-based, Staphylococcus aureus; conditions: compounds at ¼ MIC (3 at 12.5 µM), VER at 25 µM, EB 1 μg/mL, minute 30
Protocol: as §3, §4, §5

MIC of antibiotic in the absence of the compounds (S. aureus MRSA 272123) [µM] | MIC of antibiotic in the absence of the compounds (E. coli AG100 [1]) [µM] | SMILES | Relative fluorescence index (RFI) (E. coli AG100 A [2]) | Relative fluorescence index (RFI) (E. coli AG100 [3]) | Relative fluorescence index (RFI) (S. aureus ATCC 25923) | MIC [4] [µM] | MIC [5] [µM] | MIC (E. coli AG100 A [6]) [µM] | Cytotoxic effect (class in words) [7] | IC50 [7] [µM] | MIC [8] [µM] | MIC (S. aureus 272123 (MRSA) [9]) [µM] | MIC (S. aureus 272123 (MRSA) [9]; Staphylococcus aureus) [µM] | MIC (E. coli AG100 [10]; AG100, 18 h) [µM] | Relative fluorescence index (RFI) (S. aureus 272123 (MRSA) [11]) | MIC (E. coli AG100 [10]; E. coli AG100, 18 h, visual inspection, read-out: MIC) [µM]
12.5 | 0.016 | O=C(O)c1cn(C2CC2)c2cc(N3CCNCC3)c(F)cc2c1=O [CIP, ciprofloxacin, reference compound] | – | – | – | – | – | – | – | – | – | – | – | – | – | –
– | – | CN(C)CCCN1c2ccccc2Sc2ccc(Cl)cc21 [CPZ, Chlorpromazine, reference compound] | 0.48 | 0.38 | 0.17 | – | – | – | – | – | – | – | – | – | – | –
– | – | O=C(Cc1nc2ccccc2o1)C(F)(F)F [Compound 1, 2-trifluoroacetonylbenzoxazole] | 0 | −0.35 | −0.11 | > 100 | > 100 | 50 (≈ 11.5 µg/mL) | no (IC50 > 100 µM) | > 100 | 25 (≈ 5.73 µg/mL) | 12.5 (≈ 2.86 µg/mL) | 12.5 (≈ 2.86 µg/mL) | 50 (≈ 11.5 µg/mL) | −0.14 | –
– | – | O=C(Cc1nc2ccccc2o1)C(F)(F)Cl [Compound 2] | −0.01 | 0.17 | −0.07 | > 100 | > 100 | 25 (≈ 6.14 µg/mL) | no (IC50 > 100 µM) | > 100 | 12.5 (≈ 3.07 µg/mL) | 3.125 (≈ 0.768 µg/mL) | 3.12 (≈ 0.768 µg/mL) | – | −0.07 | 50 (≈ 12.3 µg/mL)
